“And” between values parts separate entries of the source, which are not always exact repeats. Equal entries are not always repeated.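 Protocol summary: plate cells (96-well), add compound at 5 concentrations, incubate 48 h, interpolate endpoints linearly. GI50 is the concentration that inhibits growth by half. TGI is the concentration that stops growth completely.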
Columns and labels:
Test in all cases: growth of human tumour cells (NCI), 48 h
LOX IMVI melanoma = test system: LOX IMVI melanoma
M14 melanoma = test system: M14 melanoma
NCI-H226 lung = test system: NCI-H226 lung
MCF7 breast = test system: MCF7 breast
OVCAR-3 ovarian = test system: OVCAR-3 ovarian
NCI-H522 lung = test system: NCI-H522 lung
786-0 renal = test system: 786-0 renal
A498 renal = test system: A498 renal
HCT-15 colon = test system: HCT-15 colon
UACC-257 melanoma = test system: UACC-257 melanoma
COLO 205 colon = test system: COLO 205 colon
TK-10 renal = test system: TK-10 renal
SK-MEL-2 melanoma = test system: SK-MEL-2 melanoma
HOP-92 NSCLC = test system: HOP-92 NSCLC
DU-145 prostate = test system: DU-145 prostate
CAKI-1 renal = test system: CAKI-1 renal

| SMILES | TGI (LOX IMVI melanoma) [µM] | TGI (M14 melanoma) [µM] | TGI (NCI-H226 lung) [µM] | TGI (MCF7 breast) [µM] | TGI (OVCAR-3 ovarian) [µM] | TGI (NCI-H522 lung) [µM] | TGI (786-0 renal) [µM] | TGI (A498 renal) [µM] | TGI (HCT-15 colon) [µM] | TGI (UACC-257 melanoma) [µM] | TGI (COLO 205 colon) | TGI (TK-10 renal) [µM] | TGI (SK-MEL-2 melanoma) [µM] | TGI (HOP-92 NSCLC) [µM] | TGI (DU-145 prostate) [µM] | TGI (CAKI-1 renal) [µM] | GI50 (MCF7 breast) |
| --- | --- | --- | --- | --- | --- | --- | --- | --- | --- | --- | --- | --- | --- | --- | --- | --- | --- |
| O=C1CCCc2ccc3c(c21)CC1(Cc2ccccc2C1)C3 | > 100 | > 100 | 67.3 | > 100 | 98.6 | 74.3 | > 100 | > 100 | > 100 | 58 | 52.3 µM | > 100 | > 100 | 50.6 |  |  |  |
| COc1cc(C2c3c(ccc4ccccc34)C(=O)C3CCC(=O)N32)cc(OC)c1O (centres undefined) |  | > 25 | > 25 | > 25 | > 25 |  | > 25 | > 25 | > 25 | > 25 | > 25 µM |  | > 25 | > 25 | > 25 |  |  |
| COc1ccc(C(=O)/C=C/c2ccc(OCC(=N)N)cc2)cc1 |  | 32.6 | 34.1 | 26.8 | 27.5 |  | 29.9 | 27.9 | 31.7 | 38.1 | 28.6 µM | 38.9 |  | 28.5 | 25.4 |  |  |
| CC(C)[C@@H](C)[C@@]1(C)C[C@@H]1[C@@H](C)[C@H]1CC[C@@H]([C@@H]2CC=C3C[C@@H](O)CC[C@]3(C)C2=O)[C@]1(C)CCO | 15.4 |  | 26.8 | 22.8 | 25.6 | 19.8 | 17.2 | 28.7 | 17.4 | 27.4 | 24.3 µM | 23.6 | 33.3 |  | 28.7 | 25.4 |  |
| COc1ccc(/C(=N\Nc2ccccn2)c2ccccn2)cc1 |  | 3.76 |  | 49.7 | 19.5 | 14.8 | 24.5 | > 100 | 12.5 | 17.4 | 12.1 µM |  | 30.2 | > 24.3 | > 100 | 22.6 |  |
| S=C=NC1CCC(c2cc3ccccc3s2)(N2CCCCC2)CC1 (centres undefined) | 3.03 | 4.39 |  | 5.72 | 4.34 | 3.23 | 3.26 | 5.1 | 3.7 | 3.54 | 3.93 µM | 3.45 |  | 3.56 | 4.52 | 3.45 |  |
| CC1(C)OC(=O)C(Cc2ccccc2)(Cc2ccccc2)C(=O)O1 | > 100 | > 100 | > 100 | > 100 |  | > 100 | > 100 |  | > 100 | > 100 | > 100 µM | > 100 | > 100 |  | > 100 | > 100 |  |
| N/C(=N\S(=O)(=O)c1cc(Cl)c(Oc2ccc([N+](=O)[O-])cc2Cl)c(Cl)c1)Nc1ccc(Cl)cc1 | 31.6 | 36.4 | 33.2 |  | 37.6 | > 100 | 35.1 | 29.4 | 33.3 | 32.8 | 30.5 µM | 35.4 | 36.2 | 32.3 | 35.8 | 33.1 |  |
| Cn1c(N=P(c2ccccc2)(c2ccccc2)c2ccccc2)c([N+](=O)[O-])c(=O)n(C)c1=O | > 100 | > 100 | > 100 | > 100 | > 100 | > 100 | > 100 | > 100 | > 100 | > 100 | > 100 µM | > 100 | > 100 | > 100 |  | > 100 |  |
| CCOC(=O)c1cc(C2CCN(Cc3ccccc3)C2=S)c(C(=O)C=[N+]=[N-])[nH]1 (centres undefined) |  | 48.7 |  | 40.4 | 45.1 | 46.7 | 85.4 | > 100 | 53.8 | 71.4 | > 100 µM | > 100 | 63 | > 100 | > 100 | > 100 |  |
| O=P(O)(CN1CCN(CP(=O)(O)c2ccccc2)CCN(CP(=O)(O)c2ccccc2)CC1)c1ccccc1 | > 100 |  | > 100 | > 100 | > 100 |  | > 100 | 88.6 |  |  | > 100 µM | > 100 |  |  | > 100 | > 100 |  |
| N#Cc1c(N2CCN(c3ccc([N+](=O)[O-])cc3)CC2)[n+](=O)c2ccccc2n1[O-] | > 100 | > 100 |  | > 100 | > 100 | > 100 | > 100 |  | > 100 | > 100 | > 100 µM | > 100 | > 100 |  | > 100 | > 100 |  |
| COc1cc2c[n+](C)c3c4cc(OC)c(OC)cc4ccc3c2cc1OC | > 100 | > 100 | > 100 | > 100 | > 100 | 42.2 | > 100 | > 100 | > 100 | > 100 | 42.8 µM and 39.9 µM | > 100 | > 100 |  | > 100 | > 100 | 35.6 µM and 8.35 µM |
| CCCCCCCCC/C=C1/CC(CO)(COC(=O)c2ccccc2)OC1=O (centres undefined) |  | 30.8 | 22.9 | 30.5 | 31.2 | 26.6 | 29.4 | 26.4 | 29.8 | 27.4 | 11.8 µM | 22.7 | 32.4 | 14.4 | 25.5 | 24.8 |  |
| COC(=O)C1=C(CCC[C@H](C)O[Si](C)(C)C(C)(C)C)NC(=O)N2[C@@H](CCO)CC[C@H]12 | 32.7 | 30.9 | 32.4 |  | 27.9 | 19.2 | 29.1 | 31.1 | 28.9 | 28.9 | 34 µM | 35 |  | 28.4 | 44.4 | 37.9 |  |
| NC(Cc1ccc(B(O)O)cc1)C(=O)NC(CO)CO (centres undefined) | > 100 | > 100 | > 100 |  | > 100 | > 100 | > 100 |  | > 100 | > 100 | > 100 µM | > 100 | > 100 |  |  | > 100 |  |

| SMILES | TGI (LOX IMVI melanoma) [µM] | TGI (M14 melanoma) [µM] | TGI (NCI-H226 lung) [µM] | TGI (MCF7 breast) [µM] | TGI (OVCAR-3 ovarian) [µM] | TGI (NCI-H522 lung) [µM] | TGI (786-0 renal) [µM] | TGI (A498 renal) [µM] | TGI (HCT-15 colon) [µM] | TGI (UACC-257 melanoma) [µM] | TGI (COLO 205 colon) | TGI (TK-10 renal) [µM] | TGI (SK-MEL-2 melanoma) [µM] | TGI (HOP-92 NSCLC) [µM] | TGI (DU-145 prostate) [µM] | TGI (CAKI-1 renal) [µM] | GI50 (MCF7 breast) |
| --- | --- | --- | --- | --- | --- | --- | --- | --- | --- | --- | --- | --- | --- | --- | --- | --- | --- |
| Cc1cc2nc(N3C(=O)/C(=C/c4ccc(N(C)C)cc4)N=C3c3ccccc3)sc2cc1C | > 100 | 73.1 |  | 21.3 | > 100 |  | 49.9 |  | > 100 | > 100 | 40.7 µM | > 100 | 65.3 | 53 | > 100 | > 100 |  |
| O=C(NCCCN1CCN(CCCNC(=O)Nc2cccc3ccccc23)CC1)Nc1cccc2ccccc12 | 20.7 | 29.9 |  | 36.4 | 26.5 | 33.4 | 34.1 | 30.5 | 31.9 | 25.9 | 31.5 µM | 28.4 | 34.2 | 29.5 | 31.3 | 31.7 |  |
| O=c1c2cc(I)ccc2nc(-c2cccs2)n1/N=C/c1ccccc1 | > 100 | > 100 | > 100 | > 100 | > 100 | > 100 | > 100 |  | > 100 | > 100 | > 100 µM | > 100 | > 100 | > 100 | > 100 | > 100 |  |
| Cc1csc(NNC(=O)Nc2ccccc2)n1 | > 100 | > 100 | > 100 | > 100 |  | > 100 | > 100 | > 100 | > 100 | > 100 | > 100 µM |  | > 100 |  | > 100 | > 100 |  |
| CCCCC(=O)Nc1ccc2c(C)cc(-c3ccc(-c4cc(-c5ccc(C)cc5)cc(-c5ccc(-c6cc(C)c7ccc(NC(=O)CCCC)nc7n6)cc5)n4)cc3)nc2n1 |  | > 100 |  | > 100 | > 100 | > 100 | > 100 | > 100 | > 100 | > 100 | > 100 µM | > 100 | > 100 | > 100 | > 100 | > 100 |  |
| CCCCc1ccc(C#CC#Cc2ccc(CCCC)s2)s1 |  | > 100 | > 100 | > 100 | > 100 | > 100 | > 100 | > 100 | > 100 | > 100 | > 100 µM | > 100 |  | > 100 | > 100 | > 100 |  |
| O=c1c2ccccc2[nH]c2c(Cl)cc(Cl)c(N3CCCCC3)c12 | > 100 | 88.9 | 62 | > 100 | > 100 | 64.3 | > 10 | 81 | > 100 | > 100 | > 100 µM | > 100 | 59.1 |  |  | 97.1 |  |
| COC(=O)/C(C#N)=C(\N)c1c(C)c2ccccc2oc1=N | > 100 |  |  | > 100 | > 100 | > 100 | > 100 | > 100 | > 100 | > 100 | > 100 µM | > 100 | > 100 | > 100 | > 100 |  |  |
| N#Cc1ccc(C2NN=CC23C(=O)c2ccccc2OC3c2ccccc2)cc1 (centres undefined) | > 100 | > 100 | > 100 | 87.4 | > 100 | 54.4 | > 100 | > 100 | > 100 | > 100 | 38 µM | 96.3 | > 100 |  | > 100 | > 100 |  |
| c1ccc([P+](c2ccccc2)(c2ccccc2)C2c3ccccc3-c3ccccc32)cc1 | 4.96 | 11.3 | 5.94 | 10 | 5.68 | 6.06 | 10.9 | 4.51 | 11 | 5.91 | 2.63 µM | 9.21 | 3.87 |  | 60.6 | 69.1 |  |
| CN(CCCn1ccnc1[N+](=O)[O-])CCCn1ccnc1[N+](=O)[O-] | > 100 | > 100 | > 100 | > 100 | > 100 | > 100 | > 100 | > 100 | > 100 | > 100 | > 100 µM | > 100 | > 100 |  | > 100 | > 100 |  |
| O=C1NC(=S)NC(=O)C1=C/C=C/c1ccc([N+](=O)[O-])cc1 | 22.6 | 30.8 | 44.3 | 34.9 | 29.1 |  | 34.5 |  | 31.7 | 30.8 | 33.6 µM | 22.5 | 30.9 | 29.5 | 32.7 | 30.8 |  |
| O=C1/C(=C/c2ccc(Cl)cc2)CSC/C1=C\c1ccc(Cl)cc1 | 5.3 | 3.92 | 5.59 | 13.1 | 8.11 | 15.2 | 9.73 |  | > 100 | 5.08 | 7.26 µM | 13 | 37.8 | 43.2 | 24.8 | 11.8 |  |
| Cc1c(F)c(NC(=O)CN(C)C)c2c(=O)cc(-c3ccc(NC(=O)CN(C)C)c(F)c3)oc2c1F | 30.9 | 31.7 | 29.2 | 28.3 |  | 41.4 | 31.1 | 3.64 | 33.7 | 48.1 | 38 µM | 23.4 | 37.1 |  | 26.5 | 23.1 |  |
| S=C(N1CCN(c2ccccc2)CC1)N1CCN(c2ccccc2)CC1 |  | > 100 | > 100 | > 100 | > 100 | > 100 | > 100 | > 100 | > 100 | > 100 | > 100 µM | > 100 | > 100 |  | > 100 | > 100 |  |

— PubChem BioAssay (NCI)
